Patent US20090233957A1, “(-)-BELOXEPIN AND METHODS FOR ITS SYNTHESIS AND USE” (priority 2008, published 2009)

Key:
L5 SNL rats = experiment: L5 Single Nerve Ligation model of neuropathic pain, tactile allodynia (von Frey); assay type: in vivo, rat
Method: Protocol. The antiallodynic activity of (−)-beloxepin was tested in vivo using the L5—Single Nerve Ligation model of non-nociceptive neuropathic pain as described in LaBuda & Little, 2005, J. Neurosci. Methods 144:175-181. The test animals were placed in a Plexiglas chamber (10 cm×20 cm×25 cm) and habituated for 15 minutes. The chamber was positioned on top of a mesh screen so that von Frey monofilaments could be presented to the plantar surface of both hindpaws. Measurement of tactile sensitivity for each hind paw were obtained using the up/down method (Dixon, 1980, Annu. Rev. Pharmacol. Toxicol. 20:441-462) with seven Frey monofilaments (0.4, 1, 2, 4, 6, 8 and 15 grams). Each trial started with a von Frey force of 2 grams delivered to the right hind paw for approximately 1-2 seconds and then the left hind paw. If there was no withdrawal response, the next higher force was delivered. If there was a response, the next lower force was delivered. This procedure was performed until no response was made at the highest force (15 grams) or until four stimuli were administered following the initial response. The 50% paw withdrawal threshold for each paw was calculated using the following formula: [Xth]log=[vFr]log+ky, where [vFr] is the force of the last von Frey used, k=0.2249 which is the average interval (in log units) between the von Frey monofilaments, and y is a value that depends upon the pattern of withdrawal responses (Dixon, 1980, supra). […] Testing for tactile sensitivity was performed twice and the mean 50% withdrawal value assigned as the tactile sensitivity for the right and left paws for each animal.
Results. The antiallodynic effects produced by (−)-beloxepin (30 mg/kg IP) and (+)-beloxepin (30 mg/kg IP) in L5 SNL rats 8 days post surgery are illustrated in FIG. 1. In this experiment, at 8 days post surgery, rats were treated with vehicle or beloxepin enantiomers (30 mg/kg IP) and tested for tactile allodynia at 30 min post treatment. […] No side effects were observed following treatment with either enantiomer.
The antiallodynic effects produced by (−)-beloxepin (30 mg/kg IP) in L5 SNL rats 14 days post surgery are illustrated in FIG. 2. In this experiment, at 14 days post surgery, rats were treated with vehicle or (−)-beloxepin and tested for tactile allodynia at 30, 60, 120 and 240 min post treatment. Vehicle treated rats were tested at 30 min post treatment.
Protocol. A time course experiment was performed with (−)-beloxepin (60 mg/kg PO) in L5 SNL rats at 7 days post-surgery. Rats were tested at 30, 60, 120, and 240 minutes post-drug.
Protocol. A time course experiment was also performed with (+)-beloxepin (60 mg/kg PO) in L5 SNL rats at 14 days post-surgery. Rats were tested at 30, 60, 120, and 240 minutes post-drug.

[1] = system: rat 50° C. hot plate model; experiment: rat 50° C. hot plate assay; assay type: in vivo; settings: for level of antinociception, positive control: 3 mg/kg SC, 30 min
Method: Protocol. Rats were treated with vehicle, 30 mg/kg IP of (−)-beloxepin, or 30 mg/kg IP of (+)-beloxepin and then were placed on a hot plate (50° C.) 30, 60, or 120 minutes after administration of the vehicle or beloxepin enantiomer. Rats treated with 3 mg/kg SC of morphine and tested 30 min post-treatment were used as a positive control in these experiments.

[2] = biological target: T1, cloned human NE transporter (hNET) (Homo sapiens, UniProt P23975); experiment: NE transporter binding assay, [3H]nisoxetine
T1 construct: expressed in transfected cells; host or cells: CHO cells
T1 sequence (P23975 whole entry): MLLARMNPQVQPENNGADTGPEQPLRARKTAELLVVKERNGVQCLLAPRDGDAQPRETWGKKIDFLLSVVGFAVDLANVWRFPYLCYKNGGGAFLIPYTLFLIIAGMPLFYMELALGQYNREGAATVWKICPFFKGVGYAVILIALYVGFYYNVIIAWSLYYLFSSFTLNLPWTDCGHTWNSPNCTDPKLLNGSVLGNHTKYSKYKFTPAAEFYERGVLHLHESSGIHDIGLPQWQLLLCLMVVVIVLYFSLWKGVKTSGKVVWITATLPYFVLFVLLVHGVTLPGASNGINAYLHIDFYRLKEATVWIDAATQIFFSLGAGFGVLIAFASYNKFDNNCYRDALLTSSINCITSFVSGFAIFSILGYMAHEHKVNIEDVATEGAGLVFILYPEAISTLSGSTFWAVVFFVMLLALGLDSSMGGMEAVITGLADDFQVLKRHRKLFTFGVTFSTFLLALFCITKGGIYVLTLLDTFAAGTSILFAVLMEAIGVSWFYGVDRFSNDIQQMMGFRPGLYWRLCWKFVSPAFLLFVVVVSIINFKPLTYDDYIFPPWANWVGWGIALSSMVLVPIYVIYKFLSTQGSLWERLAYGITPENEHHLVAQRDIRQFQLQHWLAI
Method: Protocols. For the NE transporter binding assay, [^3H]nisoxetine (1.0 nM) was incubated with various concentrations of test compounds for 2 hours at 4° C. with membranes prepared from Chinese hamster ovary cells (CHO) cells heterologously expressing the cloned human NE transporter (hNET). Bound radioactivity was determined by scintillation spectroscopy.

[3] = biological target: T2, cloned human 5HT2A receptor (Homo sapiens, UniProt P28223); experiment: 5HT2A receptor binding assay, [3H]ketanserin; settings: HEK-293 membranes
T2 construct: expressed in transfected cells; host or cells: HEK-293 cells
T2 sequence (P28223 whole entry): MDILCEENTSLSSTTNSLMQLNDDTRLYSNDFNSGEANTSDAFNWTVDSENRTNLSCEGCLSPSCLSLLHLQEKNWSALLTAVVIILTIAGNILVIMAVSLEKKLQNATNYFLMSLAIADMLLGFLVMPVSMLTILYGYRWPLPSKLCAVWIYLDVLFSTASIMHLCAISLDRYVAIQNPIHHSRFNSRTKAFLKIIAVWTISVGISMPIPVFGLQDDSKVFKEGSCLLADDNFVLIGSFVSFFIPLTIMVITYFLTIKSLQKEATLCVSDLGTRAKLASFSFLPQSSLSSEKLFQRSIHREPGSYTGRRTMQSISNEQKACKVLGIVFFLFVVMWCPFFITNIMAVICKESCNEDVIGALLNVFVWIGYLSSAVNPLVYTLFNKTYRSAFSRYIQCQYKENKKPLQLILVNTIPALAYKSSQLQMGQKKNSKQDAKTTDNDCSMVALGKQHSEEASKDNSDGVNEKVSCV
Method: For the 5HT2A receptor binding assay, [^3H]ketanserin (0.5 nM) was incubated for 60 min at 22° C. with membranes prepared from HEK-293 cells heterologously expressing the cloned human 5-HT2A receptor according to the method of Bonhaus et al., 1995, Brit. J. Pharmacol. 115:622-628. Various concentrations of test compound were added and bound radioactivity was determined by scintillation counting. Non-specific binding was determined in the presence of 1.0 μM unlabeled ketanserin. The Ki value for the test compound was determined using standard methods.

[4] = system: rat hindpaw incision model; experiment: rat hindpaw incisional pain model, tactile allodynia; assay type: in vivo; settings: 30 mg/kg IP, 24 hours post-surgery
Method: Protocol. A time course experiment was also performed with (−)-beloxepin in the hindpaw incision model. At 24 hours post-surgery, rats received vehicle or (−)-beloxepin (30 mg/kg IP). Rats were tested for tactile allodynia at 30, 60, 120 and 240 minutes after administration of (−)-beloxepin.
Protocol. Another time course experiment was performed with (+)-beloxepin in the hindpaw incision model. At 24 hours post-surgery, rats received vehicle or (+)-beloxepin (30 mg/kg IP). Rats were tested for tactile allodynia at 30, 60, 120 and 240 minutes after administration of (+)-beloxepin.

[5] = biological target: T3, cloned human 5HT2B receptor (Homo sapiens, UniProt P41595); experiment: 5HT2B receptor binding assay, [125I]DOI; settings: CHO membranes
T3 construct: expressed in transfected cells; host or cells: CHO cells
T3 sequence (P41595 whole entry): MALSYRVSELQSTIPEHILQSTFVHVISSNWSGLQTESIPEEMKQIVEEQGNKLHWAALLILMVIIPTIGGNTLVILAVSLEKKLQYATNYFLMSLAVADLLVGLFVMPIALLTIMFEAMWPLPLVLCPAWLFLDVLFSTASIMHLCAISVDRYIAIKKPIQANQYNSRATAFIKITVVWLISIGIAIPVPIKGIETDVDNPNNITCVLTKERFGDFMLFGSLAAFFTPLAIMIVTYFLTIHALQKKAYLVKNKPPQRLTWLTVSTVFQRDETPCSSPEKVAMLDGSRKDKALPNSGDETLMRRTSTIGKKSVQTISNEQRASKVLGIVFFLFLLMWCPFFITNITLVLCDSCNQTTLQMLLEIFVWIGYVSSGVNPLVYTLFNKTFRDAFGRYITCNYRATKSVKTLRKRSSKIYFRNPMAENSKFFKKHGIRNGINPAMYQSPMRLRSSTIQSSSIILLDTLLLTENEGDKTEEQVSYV
Method: For the 5HT2B receptor binding assay, [^125I](±)[…] (DOI) (0.2 nM) was incubated for 15 min at 37° C. with membranes prepared from Chinese hamster ovary cells heterologously expressing the cloned human 5HT2B receptor according to the method of Choi et al., 1994, FEBS Lett 352:393-399. Various concentrations of test compound were added and bound radioactivity was determined by scintillation counting. Non-specific binding was determined in the presence of 1.0 μM unlabeled DOI. The Ki value for the test compound was determined using standard methods.

[6] = biological target: T4, cloned human 5HT2C receptor (Homo sapiens, UniProt P28335); experiment: 5HT2C receptor binding assay, [3H]mesulergine; settings: CHO membranes
T4 construct: expressed in transfected cells; host or cells: CHO cells
T4 sequence (P28335 33-458): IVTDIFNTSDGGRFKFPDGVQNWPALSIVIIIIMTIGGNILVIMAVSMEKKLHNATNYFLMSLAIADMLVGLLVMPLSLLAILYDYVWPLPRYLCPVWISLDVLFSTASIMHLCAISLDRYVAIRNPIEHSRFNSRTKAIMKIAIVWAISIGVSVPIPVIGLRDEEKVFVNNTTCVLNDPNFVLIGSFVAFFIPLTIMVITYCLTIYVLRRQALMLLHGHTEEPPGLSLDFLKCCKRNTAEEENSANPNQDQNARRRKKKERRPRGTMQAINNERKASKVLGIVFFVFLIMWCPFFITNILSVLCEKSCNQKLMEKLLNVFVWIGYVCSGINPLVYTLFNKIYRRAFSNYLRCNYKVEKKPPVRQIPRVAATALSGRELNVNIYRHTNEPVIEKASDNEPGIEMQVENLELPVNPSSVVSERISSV
Method: For the 5HT2C receptor binding assay, [^3H]mesulergine (1.0 nM) was incubated for 60 min at 37° C. with membranes prepared from Chinese hamster ovary cells heterologously expressing the cloned human 5-HT2C receptor according to the method of Stam et al., 1994, Eur. J. Pharmacol. 269:339-348. Various concentrations of test compound were added and bound radioactivity was determined by scintillation counting. Non-specific binding was determined in the presence of 10 μM RS102221. The Ki value for the test compound was determined using standard methods.

human recombinant CYP2D6 = biological target: T5, human recombinant CYP2D6 (Homo sapiens, UniProt P10635); experiment: CYP2D6 inhibition, MAMC substrate; assay type: in vitro ADME
T5 construct: purchased BD Bioscience
T5 sequence (P10635 whole entry): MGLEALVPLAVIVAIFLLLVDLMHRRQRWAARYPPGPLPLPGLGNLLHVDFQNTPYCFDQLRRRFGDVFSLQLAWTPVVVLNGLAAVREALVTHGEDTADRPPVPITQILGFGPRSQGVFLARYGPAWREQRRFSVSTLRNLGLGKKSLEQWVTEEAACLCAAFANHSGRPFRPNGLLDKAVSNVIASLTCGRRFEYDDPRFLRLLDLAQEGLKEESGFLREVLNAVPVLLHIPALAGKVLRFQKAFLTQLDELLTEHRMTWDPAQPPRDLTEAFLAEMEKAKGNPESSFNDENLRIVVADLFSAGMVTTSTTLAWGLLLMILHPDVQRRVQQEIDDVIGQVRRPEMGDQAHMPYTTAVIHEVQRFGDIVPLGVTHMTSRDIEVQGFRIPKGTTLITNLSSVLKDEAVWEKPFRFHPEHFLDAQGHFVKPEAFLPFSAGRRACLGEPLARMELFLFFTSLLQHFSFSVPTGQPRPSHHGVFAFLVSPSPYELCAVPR
Method: Protocol. […] The source of the enzyme was microsomes containing human recombinant CYP2D6 obtained from BD Bioscience. Conversion of MAMC to 7-hydroxy-4-(aminomethyl)coumarin was measured using a PerkinElmer Fusion with a 390 nm excitation filter and a 460 nm emission filter.

[7] = system: pain intensity in study completers; settings: cited from earlier work
[8] = 30 mg/kg IP, 8 days post surgery, 30 min post treatment

SMILES: Cc1cccc2c1Oc1ccccc1C1(O)CCN(C)CC21 (single isomer, unassigned; (-)) [(−)-beloxepin]
- antiallodynia, % of the threshold of vehicle-treated L5 SNL rats (L5 SNL rats; [8]): 444%
- antiallodynic effect (L5 SNL rats; [8]): significant antiallodynia
- maximal efficacy, % of the threshold of vehicle-treated rats (L5 SNL rats; 30 mg/kg IP, 14 days post surgery): 635%
- antiallodynic effect (L5 SNL rats; 30 mg/kg IP, 14 days post surgery, tested 30, 60, 120, 240 min): significant antiallodynic effects at the 30 and 60 min time points
- antiallodynic effect (L5 SNL rats; 60 mg/kg PO, 7 days post-surgery, tested 30, 60, 120, 240 min): significant antiallodynic effects at the 60 and 120 minute time points
- antinociceptive activity ([1]; 30 mg/kg IP, 30, 60, 120 min): robust antinociceptive activity at 30, 60, and 120 minutes after treatment
- peak antinociception ([1]; 30 mg/kg IP, 30 min post-treatment): 79±10 % MPE
- higher affinity at the NET than the (+) enantiomer ([2]; (−) vs (+) enantiomer): approximately 8 fold
- Ki ([2]; membranes of CHO cells expressing hNET, read-out: NET Ki): 0.39 µM
- Ki [3]: > 10 µM
- hindpaw withdrawal threshold, % of the threshold value for vehicle treated rats ([4]; 30 minute time point): 426%
- maximum hindpaw withdrawal threshold ([4]; 30 minute time point): ~19 grams
- antiallodynic effect ([4]; tested 30, 60, 120, 240 min): significant antiallodynic effect at the 30 and 120 minute time point
- Ki [5]: > 10 µM
- Ki [6]: > 10 µM
- IC50 (human recombinant CYP2D6): 4.37 µM

SMILES: CNCCCC12CCC(c3ccccc31)c1ccccc12 [maprotiline]
- reduction in pain intensity [7]: 45%

SMILES: CN1CC[C@]23c4c5ccc(O)c4O[C@H]2[C@@H](O)C=C[C@H]3[C@H]1C5 [morphine, reference compound]
- level of antinociception, positive control ([1]; 'in these experiments'): 61±7 % MPE
- level of antinociception, positive control ([1]; (+)-beloxepin experiment (FIG. 8)): 85±7 % MPE
- level of antinociception, positive control ([1]; (−)-beloxepin experiment (FIG. 7)): 65±11 % MPE

SMILES: Fc1ccc([C@@H]2CCNC[C@H]2COc2ccc3c(c2)OCO3)cc1 [paroxetine]
- reduction in pain intensity [7]: 26%
